Experimental findings from the METLIN SMRT retention time set (Domingo-Almenara et al. 2019) are described below.

Structures are written as SMILES.

The nature of this data set: gradient 5% acetonitrile 3 min, to 50% in 2 min, to 85% in 15 min, held 3 min, 100 µL/min. To be noted: column: Zorbax Extend-C18 2.1 x 50 mm; eluents: water / acetonitrile, 0.1% formic acid. The method, boiled down:
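The mobile phases were water and acetonitrile, each with 0.1% formic acid, pumped at 100 μL/min through a Zorbax Extend-C18 column (2.1 × 50 mm, 1.8 μm). Pure standards were injected as mixtures of ~100 molecules and detected by a quadrupole time-of-flight mass spectrometer in positive and negative ionization mode. Retention time came from computationally picked adduct peaks, each inspected by hand.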
In the case of `COc1ccc(OC)c(Nc2c(-c3ccccn3)nc3cnccn23)c1`, the RP-LC retention time is 744 s. Molecule `Cc1cccc(C(=O)NC2CCN(c3nnc4ccccn34)CC2)c1` returned an RP-LC retention time of 645 s. The molecule `CCOc1ccc(CNC(=O)COc2nc(CC)nc3oc(C)c(C)c23)cc1` registered an RP-LC retention time of 993 s. In turn, `COCc1nn(CC2CC2)c2c1CN(C(=O)c1ccc(OC)cc1)CC2` had an RP-LC retention time of 715 s. `c1ccc(N2CCN(Cc3nc(-c4ccc(N5CCCCCC5)nc4)no3)CC2)nc1` yielded an RP-LC retention time of 593 s. The result for `C[C@H]1CN(C(=O)c2ccc3ccccc3n2)C[C@@H]1c1nc(-c2ccncc2)no1` reads 830 s.

Consider `C=CCNC(=O)C1CCCN(S(=O)(=O)c2ccc(OC)c(OC)c2)C1` (stereo not given), for which the RP-LC retention time turned out to be 700 s. In turn, `COc1ccc(CNS(=O)(=O)c2cc(-c3[nH]ncc3C(=O)N3CCCC3)oc2C)cc1` returned an RP-LC retention time of 718 s. The value for `O=C(CCC1CCCN(C(=O)Nc2ccccc2)C1)NCc1ccc(F)cc1F` (stereo not given) was 816 s. The value for `Cc1cccc(C(=O)Nc2ccc3c(c2)Sc2ncccc2C(=O)N3C(C)C)c1` was 898 s.

In turn, `CN1C(=O)c2cc(C(=O)NCc3ccc(Cl)cc3)nn2CC1(C)C(=O)NC1CCCCC1` (stereo not given) came in with an RP-LC retention time of 850 s.

Regarding `CCc1nc(-c2csc(S(=O)(=O)N3CCCC(C(=O)Nc4cccc(F)c4)C3)c2)no1` (stereo not given), the RP-LC retention time was 1070 s. `O=C(NCc1ccc(F)cc1)N1CCCC1c1nc(-c2ccccc2)no1` (stereo not given) yielded an RP-LC retention time of 914 s. In the case of `CCc1noc(NC(C)=O)c1-c1ccc(OC)c(S(=O)(=O)Nc2cccc(C#N)c2)c1`, the RP-LC retention time was 738 s. `O=C(CCc1ccccc1)NCC1CCN(Cc2ccccn2)CC1` yielded an RP-LC retention time of 556 s.

Molecule `CCN1C(=O)c2cccnc2Sc2cc(CNC(=O)c3cccc(OC)c3)ccc21` came in with an RP-LC retention time of 762 s.

`CCOc1cc(Cl)c(S(=O)(=O)Nc2cccnc2)cc1Cl`: the RP-LC retention time came to 717 s. The molecule `CCC(=O)N1CCCN(C2=NS(=O)(=O)C(c3ccc(C)c(C)c3)=C2C)CC1` yielded an RP-LC retention time of 766 s.

`CCC(=O)N1CCC(N2C(=O)C(O)C23CCCCC3)CC1` (stereo not given) displayed an RP-LC retention time of 590 s. The value for `O=C(NC1CCN(c2ccccc2)C1=O)c1ccccc1Br` (stereo not given) was 766 s; that for `Cc1ccc(NC(=O)Nc2ccc3nc(N4CCN(C)CC4)cc(C)c3c2)c([N+](=O)[O-])c1` was 624 s; that for `CCCn1cc(CCNS(=O)(=O)c2cccc(Cl)c2C)c2cccnc21` was 914 s. The value for `Cc1ccc(NC(=O)Cn2ccc3sccc3c2=O)c(C)c1` was 766 s; that for `c1ccc(-n2nnnc2SCCNCc2ccc3c(c2)OCCO3)cc1` was 634 s. As for `CN(C)c1ccc(NC(=O)c2c(O)c3ccccc3n(-c3ccccc3)c2=O)cc1`, the RP-LC retention time came out at 1180 s. Turning to `COCCOc1nc(N)c2[nH]c(=O)n(Cc3ccccc3)c2n1`, the RP-LC retention time turned out to be 676 s. For `Cc1ccccc1-c1nnc(CSc2nnc(NC(=O)CC3CCCCC3)s2)o1`, the RP-LC retention time was determined as 1080 s.

On to `O=C(CN1CCN(c2ccccn2)CC1)N1N=CCC1c1ccccc1` (stereo not given), for which the RP-LC retention time was 573 s.

`O=C(C1CCOC1)N1CCCn2nc(-c3cccc(Cl)c3)cc2C1` (stereo not given) came in with an RP-LC retention time of 771 s. The result for `CC(C(=O)NCCCN1CCCCC1)n1c2ccccc2c2cnn(C)c(=O)c21` (stereo not given) reads 618 s; that for `COc1cccc(-c2ccc(=O)n(CCc3nc(-c4cccc(Br)c4)no3)n2)c1`, 1080 s. `CCCn1cnc2c(-c3ccccc3)csc2c1=O` yielded an RP-LC retention time of 922 s. In turn, `CCC(C(=O)N1CCN(c2cc(=O)n(C)c(=O)n2C)CC1)N1C(=O)COc2ccccc21` (stereo not given) gave an RP-LC retention time of 702 s.

Molecule `Cc1ccc(C)c(N2CCN(C(=O)c3ccc4c(c3)N(C)C(=O)C3CCCCN43)CC2)c1` (stereo not given) gave an RP-LC retention time of 1180 s. Molecule `O=C1NCCOCCCN(C(=O)Nc2ccc3c(c2)OCCO3)[C@H]2CCCC[C@@H]12` showed an RP-LC retention time of 665 s. The value for `Nc1nc(SCCc2ccccc2)c2[nH]cnc2n1` was 675 s; that for `O=C(NCc1ccc(N2CCCC2)cc1)c1sc2ncccc2c1-n1cccc1` was 1130 s. Consider `CCCn1cnc2cc(CNC(=O)C3CCCC3)ccc21`, for which the RP-LC retention time came out at 590 s. `CC1(C)SC(C)(C)N(C=O)C1C(=O)O` (stereo not given) came in with an RP-LC retention time of 708 s. For `CC(=O)N(C)Cc1nc2ccccc2n1CC(=O)N1CCCC1`, the RP-LC retention time was 581 s. Molecule `O=C(Cn1cccc(-c2nc(-c3ccc(Cl)cc3)no2)c1=O)NC1CCCC1` displayed an RP-LC retention time of 881 s. The molecule `CCCCC(=O)N1CCN(c2cc(C)nc(Nc3ccc(C)cc3)n2)CC1` displayed an RP-LC retention time of 693 s.

Molecule `CCNc1cc(N2CCCC(CCC(=O)NCCc3cccs3)C2)ncn1` (stereo not given) registered an RP-LC retention time of 639 s. As to `O=C(Cn1c(-c2cccs2)cc2cc(Cl)ccc21)NCCN1CCOCC1`, the RP-LC retention time worked out at 706 s. Molecule `Cc1cc(C)cc(NC(=O)Cn2nc(N3CCCC3)c3ccccc3c2=O)c1` registered an RP-LC retention time of 1010 s. `Cn1c(=O)c2c(ncn2CC(=O)N2CCC(C)(c3noc(C4CC4)n3)CC2)n(C)c1=O` yielded an RP-LC retention time of 672 s.

With `CCOc1ccc(N(C)S(=O)(=O)c2ccsc2C(=O)NCCCc2ccccc2)cc1`, the RP-LC retention time came to 1210 s.

As to `Cc1ccnc(NC(=O)C2CCCN(c3ncnc4c3nc3n4CCCCC3)C2)c1` (stereo not given), the RP-LC retention time is 643 s.

In the case of `O=C(c1c(F)cccc1F)N1CCN(S(=O)(=O)c2cc3c4c(c2)CCC(=O)N4CCC3)CC1`, the RP-LC retention time turned out to be 799 s. For the molecule `COc1ccc2[nH]cc(C(=O)O)c(=O)c2c1`, the RP-LC retention time stood at 605 s. The value for `COc1ccc(NS(=O)(=O)c2c(C)sc(C)c2-c2cc(C(F)(F)F)on2)cc1` was 1110 s. The value for `CC(/C=C/c1cccc(Oc2ccc(F)cc2)c1)N(O)C(N)=O` (stereo not given) was 927 s; that for `CC(C)NC(=O)N1CCCC(c2cccc(C(=O)NCC3CCCCC3)c2)C1` (stereo not given) was 945 s. The result for `Cn1ccc2c(cc(C(=O)NCc3ccc4c(c3)OCO4)n2C)c1=O` reads 660 s. The molecule `O=C1NC(C(=O)NC2CCCC2)Cn2cccc21` (stereo not given) showed an RP-LC retention time of 628 s. Molecule `O=C(Nc1cccc(Cl)c1)C1CCN(S(=O)(=O)c2cc(C(=O)N3CCCC3)cs2)CC1` came in with an RP-LC retention time of 884 s. For the molecule `Cc1cccc(-n2cc(C(=O)OCc3ccccn3)c3ccccc3c2=O)c1`, the RP-LC retention time was 932 s. Consider `CCc1cc(=O)n(CC(=O)Nc2cc(F)ccc2F)c(N2CCOCC2)n1`, for which the RP-LC retention time is 770 s.

With `Cc1ccc(C2Cn3cnc(C(=O)N4CCC(C(=O)NCc5ccccc5Cl)CC4)c3CO2)cc1` (stereo not given), the RP-LC retention time was 823 s. `CCN1CCn2cc(S(=O)(=O)Nc3cccc(C)c3)cc2C1=O` came in with an RP-LC retention time of 736 s. The result for `Cc1sc(-c2noc(C(C)C)n2)cc1S(=O)(=O)N1CCC(C(=O)NC2CCCCCC2)CC1` reads 1140 s; that for `COc1ccc(-c2noc(-c3nnn(Cc4nc(-c5ccccc5OC)oc4C)c3C)n2)cc1OC`, 1000 s; that for `Cn1cc(-c2ccccc2)cc1C(=O)O`, 842 s.

Regarding `Cc1ccn2cc(C(=O)NCCN3CCc4ccccc4C3)nc2c1`, the RP-LC retention time amounted to 565 s.

With `O=c1c2nc(-c3ccc(F)cc3)cn2ccn1-c1ccc(F)cc1`, the RP-LC retention time worked out at 795 s. For `CN(C)c1ccc(CNC(=O)C2CCN(c3cc(N4CCCCC4)ncn3)CC2)cc1`, the RP-LC retention time turned out to be 559 s.

`Fc1ccc(-c2nnc(Cc3nc(-c4ccc5c(c4)OCO5)no3)o2)cc1` had an RP-LC retention time of 957 s. The molecule `CCCN1C(=O)c2cc(C(=O)NCc3ccccc3)nn2CC1(C)C(=O)NC1CCCC1` (stereo not given) returned an RP-LC retention time of 605 s. The result for `CCn1cc(-c2nc(C(=O)NCc3cccc(C)c3)cs2)c2cccnc21` reads 1060 s; that for `COc1ccc(-c2noc(-c3ccc(NCCCN4CCC(N5CCCCC5)CC4)nn3)n2)cc1`, 603 s. In turn, `CCc1ccc(NC(=O)Cc2c(C)nn(-c3nc(-c4ccc(C)cc4)cs3)c2C)cc1` displayed an RP-LC retention time of 1320 s.

The molecule `O=C(Cn1ncc2c(c1=O)N(C1CC1)C(=O)CS2)NCc1ccco1` returned an RP-LC retention time of 648 s. The result for `CNC(=O)Nc1ccc(-c2nc(N3CC4CCC(C3)O4)c3cnn(C4CCC5(CC4)OCCO5)c3n2)cc1` reads 794 s; that for `CN(CCc1noc(COc2cccc(C(F)(F)F)c2)n1)C(=O)c1ccco1`, 919 s; that for `Cc1cccc(S(=O)(=O)N2CCC(c3noc(-c4cccc(F)c4)n3)CC2)c1`, 1110 s.

As for `COc1ccc(C(=O)c2c(C)n(CCN3CCOCC3)c3ccccc23)cc1`, the RP-LC retention time is 780 s. Turning to `CCOc1ccc(C2=NC3(CCN(CC)CC3)NC(c3ccccc3O)C2)cc1` (stereo not given), the RP-LC retention time was 583 s.

`O=C(NCc1cccs1)c1ccc(-c2nccnc2N2CCCCC2)cc1` displayed an RP-LC retention time of 968 s.

As for `COc1cccc(-c2nc(Cn3c(=O)c4c(C)cc(C)nc4n(C)c3=O)c(C)o2)c1OC`, the RP-LC retention time worked out at 1130 s. The value for `CCCS(=O)(=O)N1CC(=O)N(c2ccc(F)cc2C)C(C)(C(=O)NC2CCCCC2)C1` (stereo not given) was 925 s.
